Where “and” joins values, the source holds several entries; their conditions need not be identical. Equal values may be shown once. Read-outs that look alike come from different tables or passages of the source.
Assays:
[1] = system: cells (nuclei count); settings: for Toxicity Data: Average, Mean: average of Exp 1-3 (SMW475, SMW477, SMW478), n 9
[2] = system: SARS2; type: cell-based, SARS-CoV-2; settings: for Infection Data: Percentage Infection Relative to Appropriate DMSO Control: avg background subtraction, replicate wells; for Infection Data: Average, Mean: average of Exp 1-3 (SMW475, SMW477, SMW478), n 9

Question: Which results are given for Cc1cc(CN(CCN(C)C)Cc2ccco2)sc1Br [SILCS15]?
Answer: Toxicity Data: Average, Mean ([1]; 1 uM): 105.96%; Relative cell count to DMSO controls, Average 1 μM ([1]; 1 μM, toxicity data, 100=DMSO control): 105.96; Toxicity Data: Average, Mean ([1]; 5 uM): 104.00%; Relative cell count to DMSO controls, Average 5 μM ([1]; 5 μM, toxicity data, 100=DMSO control): 104; Toxicity Data: Average, Mean ([1]; 10 uM): 107.75%; Relative cell count to DMSO controls, Average 10 μM ([1]; 10 μM, toxicity data, 100=DMSO control): 107.75; Toxicity Data: Average, Mean ([1]; 25 uM): 115.74%; Relative cell count to DMSO controls, Average 25 μM ([1]; 25 μM, toxicity data, 100=DMSO control): 115.74; Toxicity Data: Average, Mean ([1]; 50 uM): 65.19%; Relative cell count to DMSO controls, Average 50 μM ([1]; 50 μM, toxicity data, 100=DMSO control): 65.19; Relative cell count to DMSO controls, Average (for correlation analysis) ([1]; average value over the 5 tested concentrations (1 to 50 uM)): 99.73; Infection Data: Percentage Infection Relative to Appropriate DMSO Control ([2]; 1 uM, Exp 1 (SMW475)): 117.62% and 124.56% and 121.12%; Infection Data: Percentage Infection Relative to Appropriate DMSO Control ([2]; 1 uM, Exp 2 (SMW477)): 103.78% and 103.22% and 100.05%; Infection Data: Percentage Infection Relative to Appropriate DMSO Control ([2]; 1 uM, Exp 3 (SMW478)): 107.90% and 99.19% and 97.03%; Infection Data: Average, Mean ([2]; 1 uM): 108.27%; Infection Data: Percentage Infection Relative to Appropriate DMSO Control ([2]; 5 uM, Exp 1 (SMW475)): 131.70% and 141.65% and 132.54%; Infection Data: Percentage Infection Relative to Appropriate DMSO Control ([2]; 5 uM, Exp 2 (SMW477)): 102.31% and 90.53% and 98.90%; Infection Data: Percentage Infection Relative to Appropriate DMSO Control ([2]; 5 uM, Exp 3 (SMW478)): 98.36% and 110.89% and 93.32%; Infection Data: Average, Mean ([2]; 5 uM): 111.13%; Infection Data: Percentage Infection Relative to Appropriate DMSO Control ([2]; 10 uM, Exp 1 (SMW475)): 79.51% and 121.98% and 93.64%; Infection Data: Percentage Infection Relative to Appropriate DMSO Control ([2]; 10 uM, Exp 2 (SMW477)): 75.81% and 72.41% and 82.10%; Infection Data: Percentage Infection Relative to Appropriate DMSO Control ([2]; 10 uM, Exp 3 (SMW478)): 111.15% and 106.59% and 85.32%; Infection Data: Average, Mean ([2]; 10 uM): 92.05%; Infection Data: Percentage Infection Relative to Appropriate DMSO Control ([2]; 25 uM, Exp 1 (SMW475)): 30.31% and 27.68% and 26.54%; Infection Data: Percentage Infection Relative to Appropriate DMSO Control ([2]; 25 uM, Exp 2 (SMW477)): 35.02% and 27.68% and 29.29%; Infection Data: Percentage Infection Relative to Appropriate DMSO Control ([2]; 25 uM, Exp 3 (SMW478)): 35.78% and 39.52% and 32.45%; Infection Data: Average, Mean ([2]; 25 uM): 31.59%; Infection Data: Percentage Infection Relative to Appropriate DMSO Control ([2]; 50 uM, Exp 1 (SMW475)): 23.93% and 15.87% and 20.00%; Infection Data: Percentage Infection Relative to Appropriate DMSO Control ([2]; 50 uM, Exp 2 (SMW477)): 18.29% and 18.14% and 19.12%; Infection Data: Percentage Infection Relative to Appropriate DMSO Control ([2]; 50 uM, Exp 3 (SMW478)): 20.62% and 25.98% and 33.79%; Infection Data: Average, Mean ([2]; 50 uM): 21.75%; Percentage Inhibition Average 1 μM ([2]; SARS2, 1 μM): −8.27%; Screening data (Relative infection to DMSO controls) Average 1 μM ([2]; SARS2, 1 μM, 100=DMSO control): 108.27; Percentage Inhibition Average 5 μM ([2]; SARS2, 5 μM): −11.13%; Screening data (Relative infection to DMSO controls) Average 5 μM ([2]; SARS2, 5 μM, 100=DMSO control): 111.13; Percentage Inhibition Average 10 μM ([2]; SARS2, 10 μM): 7.95%; Screening data (Relative infection to DMSO controls) Average 10 μM ([2]; SARS2, 10 μM, 100=DMSO control): 92.05; Percentage Inhibition Average 25 μM ([2]; SARS2, 25 μM): 68.41%; Screening data (Relative infection to DMSO controls) Average 25 μM ([2]; SARS2, 25 μM, 100=DMSO control): 31.59; Percentage Inhibition Average 50 μM ([2]; SARS2, 50 μM): 78.25%; Screening data (Relative infection to DMSO controls) Average 50 μM ([2]; SARS2, 50 μM, 100=DMSO control): 21.75; Average (relative infection to DMSO over the 5 tested concentrations) ([2]; SARS2, average over 1 to 50 uM, 100=DMSO control): 72.96
